Assay results from US9352050B2, “Processes for preparing peptide conjugates and linkers” (PFIZER INC., priority 2011, dated 2016).

What was measured:
Assay type in all cases: physicochemical
[1] = Degradation of peptide 3b in the conjugation mixture; settings: higher temperatures (30-35° C.) and higher pH (about pH7.5)
Protocol: In order to investigate the impact of different conjugation reaction variables on the reaction rate, product quality and yield, a set of experiments were executed using design of experiments (DOE) approach. Three parameters were chosen for evaluation: pH of the conjugation mixture, temperature of the conjugation and the ratio of peptide to starting antibody. Other parameters such as composition of the buffer solution (20 mM histidine buffer), antibody concentration (16.7 mg/mL) and concentration of DMSO in solution (7%) were kept constant. The centre point for each parameter was pH6.5, 20° C. and a peptide:antibody ratio of 2.4:1. The low levels tested were pH5.5, 5° C. and a ratio of 1.8, and the high levels were pH7.5, 35° C. and a ratio of 3.
Several experiments whose variable values were at the center-point of all the parameter ranges were selected to provide information on possible non-linear effects. The protocol for these experiments was briefly as follows: Peptide 3b (25 mg) was placed in a 20 mL vial equipped with a magnetic stir bar. The solid was dissolved in DMSO (2.1 mL). Histidine buffer (20 mM, pH 6.5, 2.1 mL) was added to the solution. […] The reaction was monitored for completion by SEC and HIC chromatography methods. […] The in-situ yield of 5 and time of reaction completion (hours) were evaluated by HIC and SEC chromatographic methods. […]

[2] = Solubility and dissolution of peptide-linker conjugate and peptide in solvents and buffers
Source text: The process for the formation of the drug substance 5 was originally described in U.S. Pat. No. 8,288,349 whose contents are hereby incorporated. The original process involved use of propylene glycol as the cosolvent in the conjugation process between peptide-linker 3 and the antibody h38C2. […] The more amorphous solid form is usually more soluble in different solvents and buffer solutions. […] During preparation of bioconjugate 5, it is desirable to have a conjugation mixture as a homogeneous solution at the beginning of the reaction in order to afford consistent reaction kinetics and more robust manufacturing process.
In the original process, propylene glycol was used as a cosolvent primarily to assist in the dispersion of the hydrophobic peptide-linker 3b in the aqueous histidine buffer solution at pH 6.5.

[3] = Storage stability of activated esters of acid 6 at room temperature; settings: solid, in contact with air
Source text: This cyclic byproduct became the major constituent of the isolated solid after only a few days at RT. Since this side-reaction was envisioned to become even more problematic on scale due to the longer timelines for processing and isolation, a search for an alternative activating group for acid 6 was undertaken.

## CSCC[C@H](NC(=O)[C@H](Cc1ccccc1)NC(=O)[C@H](CCC(N)=O)NC(=O)[C@H](CC(=O)O)NC(=O)[C@H](Cc1ccc(O)cc1)NC(=O)[C@H](CC(C)C)NC(=O)[C@@H](NC(=O)[C@H](CCCCNC(=O)COCC(=O)Nc1ccc(CCC(=O)N2CCC2=O)cc1)NC(=O)[C@H](CC(=O)O)NC(=O)[C@H](CCCCNC(C)=O)NC(=O)[C@H](CCC(=O)O)NC(=O)[C@H](CC(=O)O)NC(=O)[C@H](CC(C)C)NC(=O)[C@@H]1CCCN1C(=O)[C@H](CCC(N)=O)NC(=O)[C@H](Cc1ccc(O)cc1)NC(=O)[C@H](CCCCNC(C)=O)NC(=O)[C@H](CCC(N)=O)NC(C)=O)C(C)O)C(=O)N[C@@H](CC(C)C)C(=O)N[C@@H](CCC(N)=O)C(=O)N[C@@H](CCC(N)=O)C(=O)NCC(N)=O (stereo partly drawn) [3b]
[1]
  Degradation rate: occurs at a faster rate
[2]
  Solubility in propylene glycol: very low solubility
  Solubility in solvents other than DMSO: limited solubility
[2]; Solubility in DMSO
  solubility: ≥ 100 mg/mL

## CC(=O)NCCCC[C@H](N)C(=O)O [compound 2]
[2]; MeCN or MeOH
  solubility: low solubility

## O=C(COCC(=O)ON1C(=O)CCC1=O)Nc1ccc(CCC(=O)N2CCC2=O)cc1 [compound 8]
[3]
  Storage stability: increasing amounts of the second component were noticed after the solid had been set aside for only a few hours
